Laboratory results from paper PMC5670239, “Structural basis for mutually exclusive co-transcriptional nuclear cap-binding complexes with either NELF-E or ARS2” (Nature Communications, 2017).
Substitutions are numbered along the chain they refer to.

Assays:
CBC (6 mutations) = molecular target: T1, CBC (6 mutations) (Homo sapiens, UniProt P52298, D107R/Y50A/Y89A); assay: ITC, m^7GTP binding to CBC with triple mutants of both CBP20 and CBP80; conditions: 25 °C, pH 7.8, CBP80 Y461A/R610E/H651A + CBP20 Y50A/Y89A/D107R, mean ± SD of 2 experiments
T1 sequence (P52298 1-156 Y50A/Y89A/D107R): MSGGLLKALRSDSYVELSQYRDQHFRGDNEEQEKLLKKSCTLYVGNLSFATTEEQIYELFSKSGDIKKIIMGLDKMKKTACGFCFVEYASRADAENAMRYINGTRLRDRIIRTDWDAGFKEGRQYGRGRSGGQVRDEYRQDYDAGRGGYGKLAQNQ
T1 sequence (Q09161 20-790 Y461A/R610E/H651A partner): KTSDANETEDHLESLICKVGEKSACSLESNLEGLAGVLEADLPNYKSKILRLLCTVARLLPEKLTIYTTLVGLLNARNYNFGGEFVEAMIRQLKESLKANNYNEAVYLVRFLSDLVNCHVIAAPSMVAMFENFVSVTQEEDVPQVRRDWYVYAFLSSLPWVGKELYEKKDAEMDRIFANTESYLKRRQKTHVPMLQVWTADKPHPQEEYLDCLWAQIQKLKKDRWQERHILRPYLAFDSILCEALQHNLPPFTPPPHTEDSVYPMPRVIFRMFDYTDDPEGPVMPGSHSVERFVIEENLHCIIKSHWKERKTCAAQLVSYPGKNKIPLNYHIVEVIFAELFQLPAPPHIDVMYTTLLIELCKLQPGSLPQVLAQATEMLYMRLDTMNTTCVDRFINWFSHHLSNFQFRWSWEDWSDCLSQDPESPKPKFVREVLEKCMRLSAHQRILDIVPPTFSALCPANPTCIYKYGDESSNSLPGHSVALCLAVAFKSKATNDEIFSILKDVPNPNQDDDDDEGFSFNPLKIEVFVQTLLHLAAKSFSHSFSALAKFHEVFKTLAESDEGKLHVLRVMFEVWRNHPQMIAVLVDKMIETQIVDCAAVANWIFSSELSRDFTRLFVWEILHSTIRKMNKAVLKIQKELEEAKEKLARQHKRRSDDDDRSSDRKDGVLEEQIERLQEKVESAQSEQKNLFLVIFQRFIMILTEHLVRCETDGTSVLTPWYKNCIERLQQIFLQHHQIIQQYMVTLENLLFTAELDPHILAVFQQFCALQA
Protocol: (§1) For CBC, a triple mutant in CBP80 (Y461A/R610E/H651A) was combined with various mutations in CBP20 (Y50A, Y50A/Y89A, or Y50A/Y89A/D107R).
(§2) ITC experiments were performed on a MicroCal ITC200 system (Malvern). Proteins were dialyzed overnight in buffer 20 mM HEPES, 120 mM NaCl, 2 mM tris(2-carboxyethyl)phosphine, pH 7.8. Injections of 1.5 µl protein A were added at an interval of 120–180 s into 205 µl of protein B in the cell, with a stirring speed of 800 rpm at 25 °C. The experimental data were analysed with MicroCal ITC Origin and were fitted to a single-site binding equation.

CBC-NELF-E 244–380 = CBC-NELF-E 244–380 (Homo sapiens, UniProt P52298); assay: ITC, m^7GTP titrated to CBC saturated with NELF-E 244–380; type: binding
Sequence of CBC-NELF-E 244–380 (P52298 whole entry): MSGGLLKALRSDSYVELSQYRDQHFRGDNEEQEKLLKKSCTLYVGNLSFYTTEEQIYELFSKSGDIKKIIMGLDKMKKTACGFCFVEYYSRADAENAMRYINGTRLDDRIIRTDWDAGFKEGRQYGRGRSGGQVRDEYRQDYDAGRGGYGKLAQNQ
Sequence of CBC-NELF-E 244–380 (Q09161 20-790 partner): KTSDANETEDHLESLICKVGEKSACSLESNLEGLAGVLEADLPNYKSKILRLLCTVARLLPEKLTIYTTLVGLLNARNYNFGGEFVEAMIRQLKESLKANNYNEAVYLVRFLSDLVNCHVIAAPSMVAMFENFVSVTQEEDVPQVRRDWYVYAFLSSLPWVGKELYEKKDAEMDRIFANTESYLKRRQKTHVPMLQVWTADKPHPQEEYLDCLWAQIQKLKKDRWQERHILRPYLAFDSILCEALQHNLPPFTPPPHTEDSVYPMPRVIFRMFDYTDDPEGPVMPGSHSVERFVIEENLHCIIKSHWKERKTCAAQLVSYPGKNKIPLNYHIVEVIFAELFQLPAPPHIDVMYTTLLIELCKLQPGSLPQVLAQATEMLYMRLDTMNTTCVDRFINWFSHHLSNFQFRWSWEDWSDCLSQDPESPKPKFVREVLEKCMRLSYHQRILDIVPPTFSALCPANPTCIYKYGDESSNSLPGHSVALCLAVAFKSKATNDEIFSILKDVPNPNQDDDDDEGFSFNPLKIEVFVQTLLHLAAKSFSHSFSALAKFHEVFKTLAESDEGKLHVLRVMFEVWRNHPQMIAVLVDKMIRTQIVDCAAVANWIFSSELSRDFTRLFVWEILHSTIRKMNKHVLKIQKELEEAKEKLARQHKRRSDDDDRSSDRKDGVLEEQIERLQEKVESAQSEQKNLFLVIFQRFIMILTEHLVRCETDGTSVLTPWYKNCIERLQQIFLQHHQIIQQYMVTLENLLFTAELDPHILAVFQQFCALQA
Sequence of CBC-NELF-E 244–380 (P18615 244-380 partner): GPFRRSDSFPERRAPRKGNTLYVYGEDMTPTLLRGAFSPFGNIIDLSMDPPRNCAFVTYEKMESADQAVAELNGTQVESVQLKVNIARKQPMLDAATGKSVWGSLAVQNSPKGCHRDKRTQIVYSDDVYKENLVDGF
From the text: Supplementary Figure 7. Influence of ARS2 and NELF-E on m7GTP binding to CBC.
Representative isothermal titration calorimetry data, presented as in the caption to Figure 1C,
allowing determination of the affinity of CBC to m7GTP in the absence (left) or in the
presence of bound ARS2827-871 (middle) or NELF-E244-380 (right). CBC or CBC saturated
with 2.2 molar excess of ARS2827-871 or NELF-E244-380 in the sample cell was titrated by
m7GTP. KD values represent the average from at least two independent experiments (see […]

CBCmut = molecular target: T2, CBCmut (Homo sapiens, UniProt P52298, Y50A); assay: ITC, m^7GTP binding to CBCmut; conditions: 25 °C, pH 7.8, m^7GTP titrated to CBCmut, mean ± SD of 2 experiments
T2 sequence (P52298 1-156 Y50A): T1 sequence (P52298 1-156 Y50A/Y89A/D107R) with A89Y, R107D
T2 sequence (Q09161 20-790 Y461A/R610E/H651A partner): T1 sequence (Q09161 20-790 Y461A/R610E/H651A partner)
Protocol: as §1, §2

Structure (SMILES): C[n+]1cn([C@@H]2O[C@H](COP(=O)(O)OP(=O)([O-])OP(=O)(O)O)[C@@H](O)[C@H]2O)c2nc(N)[nH]c(=O)c21 [m^7GTP]
- Kd (CBC (6 mutations)): 70 ± 4 µM
- Kd (CBC-NELF-E 244–380; 25 °C, pH 7.8, CBC saturated with 2.2 molar excess of NELF-E 244–380, titrated by m^7GTP, mean ± SD of 3 experiments, SD): 44 ± 2 nM
- Increase of the affinity of CBC for cap (m^7GTP) by saturating NELF-E (CBC-NELF-E 244–380; compared to m^7GTP binding to CBC alone): ~ 3 factor
- K D (CBCmut): as well as wild-type CBC
- Kd (CBCmut; SD): 95 ± 24 nM
